The values below come from article PMC11104609, “Discovery of allosteric regulators with clinical potential to stabilize alpha-L-iduronidase in mucopolysaccharidosis type I” (PLOS ONE, 2024).

Data set [1] can be described thus: Precipitation observed in DSF dose response. It counts as physicochemical. The conditions noted are these: DSF buffer 100 mM Hepes, 20 mM MgCl2, pH 7, 1% DMSO. As for the experimental part:
The capacity of the compounds to stabilise IDUA was assessed by DSF. The thermal denaturation of purified human native enzyme was monitored in the presence of the extrinsic fluorescent probe SYPRO® Orange (Thermo Fisher Scientific, Waltham, MA, USA), which binds to hydrophobic parts of proteins that become exposed as the protein unfolds. […] Reactions containing 12.5 μL of 1.5 μM rhIDUA protein (purchased from R&D Systems) in 100 mM Hepes, 20 mM MgCl2, pH 7, to a final protein concentration of 0.75 μM with SYPRO Orange 10X, and 12.5 μL of the different compound solutions dissolved in 100% DMSO and diluted into the protein buffer to achieve final concentrations of 1% DMSO. The intensity of SYPRO Orange fluorescence after a systematic increase in temperature was monitored in the Roche LightCycler® 480 II device (Roche Diagnostics). The significance of the melting temperature (Tm) shifts was evaluated based on two criteria: absolute ΔTm shift > 0.5 °C (instrumental criterion) and absolute ΔTm standard deviation ≤ 0.2 (statistical criterion). The thermal shift dose response was performed at various increasing concentrations (from 0.04 to 90 μM) of compound #18 (GT-01803) with rhIDUA (obtained from the Institute of Biotechnology and Biomedicine at the Autonomous University of Barcelona (UAB), Bellaterra, Spain).

For data set [2], the target named is T1, rhIDUA (Aldurazyme) (Homo sapiens, UniProt P35475).
T1 sequence (P35475 28-653): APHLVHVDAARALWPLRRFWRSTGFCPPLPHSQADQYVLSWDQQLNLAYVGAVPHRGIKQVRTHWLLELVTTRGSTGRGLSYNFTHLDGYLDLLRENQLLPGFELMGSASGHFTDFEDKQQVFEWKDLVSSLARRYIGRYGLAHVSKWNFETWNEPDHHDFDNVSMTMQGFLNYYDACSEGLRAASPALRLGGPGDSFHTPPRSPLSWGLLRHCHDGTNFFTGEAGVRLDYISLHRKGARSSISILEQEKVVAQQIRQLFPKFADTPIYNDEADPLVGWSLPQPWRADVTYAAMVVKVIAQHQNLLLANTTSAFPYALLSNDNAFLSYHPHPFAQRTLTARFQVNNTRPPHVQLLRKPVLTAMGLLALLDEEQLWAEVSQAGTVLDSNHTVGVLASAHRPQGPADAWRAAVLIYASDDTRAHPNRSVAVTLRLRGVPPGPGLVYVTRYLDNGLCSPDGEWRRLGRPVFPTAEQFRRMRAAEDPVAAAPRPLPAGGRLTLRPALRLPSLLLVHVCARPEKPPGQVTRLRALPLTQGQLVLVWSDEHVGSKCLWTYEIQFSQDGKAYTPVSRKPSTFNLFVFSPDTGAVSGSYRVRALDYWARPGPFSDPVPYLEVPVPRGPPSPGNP
As to the kind of experiment: IDUA assay in plasma of mice co-administered rhIDUA and GT-01803. The conditions noted are these: GT-01803 5, 10, 20 mg/kg i.v. + rhIDUA 1.2 mg/kg i.v.; 0.5, 1, 2 h; dose-dependent, significant at 20 mg/kg. Format: in vivo, male C57BL/6 mice. As for the experimental part: (§1) Mice studies were performed by Sai Life Sciences (Pune, India). All procedures of the present study were in accordance with the guidelines provided by the Committee for the Purpose of Control and Supervision of Experiments on Animals (CPCSEA) as published in The Gazette of India, December 15, 1998. In addition, prior approval from the Institutional Animal Ethics Committee (IAEC) was obtained before the initiation of the study. Healthy male C57BL/6 mice (8–10 weeks old) weighing between 22 and 25 g were procured (Global, Pune, India). Three to five mice were housed in each cage. Temperature and humidity were maintained at 22 ± 2 °C and 41–63%, respectively, and illumination was controlled to give a sequence of a 12 h light and 12 h dark cycle. In the study’s in-life phase, we provided all mice with cage enrichment to minimize anxiety. We conducted bone marrow sampling under isoflurane anesthesia, maintaining it throughout the entire procedure. […] All procedures were carried out according to our in-house Standard Operating Procedures and monitored by a veterinarian if required. […]
Plasma samples from mice were collected at 0.5, 1 and 2 h after treatment with compound #18 (GT-01803). […] The plate was read at excitation 355 nm and emission 460 nm in TECAN Infinite® M1000 Pro reader (Thermo Fisher Scientific, UK). […]

In data set [3] the target is T1, rhIDUA (Aldurazyme). As to the kind of experiment: IDUA assay in bone marrow of mice co-administered rhIDUA and GT-01803. Format: in vivo, male C57BL/6 mice. The conditions noted are these: GT-01803 5, 10, 20 mg/kg i.v. + rhIDUA 1.2 mg/kg i.v.; 6, 8, 10 h; dose-dependent, significant at 20 mg/kg. As for the experimental part:
as §1
Bone marrow samples from mice were collected at 2, 6, 8 and 10 h after treatment with compound #18 (GT-01803). […] The relative fluorescence unit (RFU) in the IDUA enzymatic assay was measured in duplicates (two replicates) and then averaged to obtain the enzyme activity per animal.

As to `CCN(CC(=O)Nc1c(Cl)cccc1Cl)Cc1nc2ccsc2c(=O)[nH]1` [GT-01803], in data set [1], the “concentration at which precipitation was observed” value amounted to 100 µM. Further, the “IDUA enzymatic activity levels in plasma” value on rhIDUA (Aldurazyme) [2] is “increased”. The “IDUA enzymatic activity levels in bone marrow” value on rhIDUA (Aldurazyme) [3] was “increased”.
